Data from patent US7179805B2, “7-amino alkylidenyl-heterocyclic quinolones and naphthyridones” (Janssen Pharmaceutica N.V., priority 2003, dated 2007).

Columns and labels:
[1] = system: Staphylococcus aureus OC4172; experiment: MIC, microdilution broth method (NCCLS); format: cell-based; settings: organism A: Staphylococcus aureus OC4172; 35° C., 16–20 hours
Method: (§1) Minimal inhibitory concentration (MIC) has been an indicator of in vitro antibacterial activity widely used in the art. The in vitro antimicrobial activity of the compounds was determined by the microdilution broth method following the test method from the National Committee for Clinical Laboratory Standards (NCCLS). This method is described in the NCCLS Document M7-A4, Vol.17, No.2, “Methods for Dilution Antimicrobial Susceptibility Test for Bacteria that Grow Aerobically—Fourth Edition”, which is incorporated herein by reference.
(§2) In this method two-fold serial dilutions of drug in cation adjusted Mueller-Hinton broth are added to wells in microdilution trays. The test organisms are prepared by adjusting the turbidity of actively growing broth cultures so that the final concentration of test organism after it is added to the wells is approximately 5×10^4 CFU/well.
(§3) Following inoculation of the microdilution trays, the trays are incubated at 35° C. for 16–20 hours and then read. […] The amount of growth in the wells containing the test compound is compared with the amount of growth in the growth-control wells (no test compound) used in each tray. As set forth in Table 5, compounds of the present invention were tested against a variety of pathogenic bacteria resulting in a range of activities depending on the organism tested.

[2] = system: Streptococcus pneumoniae ATCC 49619; experiment: MIC, microdilution broth method (NCCLS); format: cell-based; settings: ATCC49619; organism E: Streptococcus pneumoniae ATCC 49619; 35° C., 16–20 hours
Method: as §1, §2, §3

| Compound | MIC [1] [µg/mL] | MIC [2] [µg/mL] |
| --- | --- | --- |
| CNCC=C1CCN(c2c(F)cc3c(=O)c(C(=O)O)cn(C4CC4)c3c2OC)CC1.O=C(O)C(F)(F)F [Compound 221, 1-Cyclopropyl-6-fluoro-8-methoxy-7-[4-(2-methylaminoethylidene)piperidin-1-yl]-4-oxo-1,4-dihydroquinoline-3-carboxylic acid trifluoroacetic acid salt] | 0.12 | 0.5 |
| NCC(F)=C1CCN(c2cc3c(cc2F)c(=O)c(C(=O)O)cn3C2CC2)CC1.O=C(O)C(F)(F)F [Compound 5, 7-[4-(2-Amino-1-fluoro-ethylidene)piperidin-1-yl]-1-cyclopropyl-6-fluoro-4-oxo-1,4-dihydroquinoline-3-carboxylic acid trifluoroacetic acid salt] |  | 0.06 |
